Measured values taken from patent US12589158B2 (priority 2022, dated 2026).

Legend:
[1] = Pharmacokinetics following single administration in SD rat; design: species or system SD rats; details: in vivo, sc, 50 nmol/kg
Experimental: The compound is administrated to male SD rats (230-268 g, n=3) at a dose of 50.0 nmol/kg (s.c.) or 25.0 nmol/kg (i.v.). […] 30.0 μL of thawed plasma sample is taken. 150 μL of acetonitrile solution (containing 5 ng mL^−1 Verapamil, 50 ng·mL^−1 Glibenclamide, 200 ng·mL^−1 Tolbutamide and 200 ng·mL^−1 Diclofenac) are added to precipitate protein. The mixture is vortexed for 5 minutes, and centrifuged at 3700 rpm for 8 minutes. 70.0 μL of the supernatant is taken, into which 70.0 μL of 0.5% aqueous formic acid solution is added. The mixture is vortexed for 5 minutes. 15 μL of the mixture solution is sampled and injected into the LC-MS/MS to determine the drug concentration in plasma. 20.0 μL of thawed plasma sample is taken. 60 μL of acetonitrile solution (containing 5 ng mL^−1 Verapamil, 50 ng·mL^−1 Glibenclamide, 200 ng·mL^−1 Tolbutamide and 200 ng·mL^−1 Diclofenac) are added to precipitate protein. […] The mixture is vortexed for 10 minutes. 10.0 μL of the mixture solution is sampled and injected into the LC-MS/MS to determine the drug concentration in plasma. 30.0 μL of thawed plasma sample is taken. 150 μL of acetonitrile solution (containing 5 ng mL^−1 Verapamil, 50 ng mL^−1 Glibenclamide, 200 ng·mL^−1 Tolbutamide and 200 ng·mL^−1 Diclofenac) are added to precipitate protein. The mixture is vortexed for 5 minutes, and centrifuged at 3700 rpm for 8 minutes. 70.0 μL of the supernatant is taken, into which 70.0 μL of 0.5% aqueous formic acid solution is added. The mixture is vortexed for 5 minutes. 10.0 μL of the mixture solution is sampled and injected into the LC-MS/MS to determine the drug concentration in plasma.

[2] = Pharmacokinetics in cynomolgus monkeys; details: cynomolgus monkey, in vivo, sc, 25 nmol/kg
Experimental: After subcutaneous or intravenous administration to cynomolgus monkeys, plasma is collected and the drug concentration in plasma is determined to illustrate the in vivo pharmacokinetic properties of the compound according to the present invention. The compound is dissolved in 1.4% PG in 8 mM Na2HPO4 Buffer (pH 7.39), and filtered through a filter membrane (PTFE, 0.45 μm) to obtain 25 and 12.5 nmol/mL solution of the compound respectively. The obtained solutions are administered to cynomolgus monkeys (4-8 kg) at a dose of 25 nmol/kg subcutaneously (s.c.) or 12.5 nmol/kg intravenously (i.v.). […] The blood samples are centrifuged at 2200 g for 10 minutes to obtain a plasma, which is stored at −90° C. to −60° C. for further analysis and assay.
70.0 μL of thawed plasma sample is taken. 70 μL of acetonitrile (containing 1 ng/ml of the internal standard) is added to precipitate protein. The mixture is vortexed for 1 minute, and centrifuged at 14000 rpm for 10 minutes. 60.0 μL of the supernatant is taken, into which 60.0 μL of 0.5% aqueous formic acid solution is added. The mixture is vortexed for 5 minutes. 10 μL of the mixture solution is sampled and injected into the LC-MS/MS to determine the drug concentration in plasma.
Based on the drug concentration in plasma of the compounds in the cynomolgus monkeys, the pharmacokinetic parameters are calculated by applying the software Winnolin 8.2 in a non-compartmental model, and the results are shown in Table 9 and Table 10 below.

[3] = Pharmacokinetics in C57 mice; details: mouse, in vivo
Experimental: After subcutaneous or intravenous administration to C57 mice, plasma is collected and the drug concentration in plasma is determined to illustrate the in vivo pharmacokinetic properties of the compound according to the present invention. […] 20.0 μL of thawed plasma sample is taken. 20 μL of 50% aqueous methanol solution (containing 100 ng mL^−1 internal standard) and 60 μL of acetonitrile are added sequentially to precipitate protein. The mixture is vortexed for 5 minutes, and centrifuged at 3700 rpm for 8 minutes. 50.0 μL of the supernatant is taken, into which 50.0 μL of 0.5% aqueous formic acid solution is added. The mixture is vortexed for 5 minutes. 50 μL of the mixture solution is sampled and injected into the LC-MS/MS to determine the drug concentration in plasma.

Compound: CC[C@H](C)[C@H](NC(=O)C(C)(C)NC(=O)[C@H](Cc1ccc(O)cc1)NC(=O)[C@H](CC(=O)O)NC(=O)[C@H](CO)NC(=O)[C@@H](NC(=O)C(C)(Cc1ccccc1)NC(=O)[C@@H](NC(=O)CNC(=O)[C@H](CCC(=O)O)NC(=O)C(C)(C)NC(=O)[C@@H](N)Cc1ccc(O)cc1)[C@@H](C)O)[C@@H](C)O)C(=O)NC(C)(C)C(=O)N[C@@H](CC(C)C)C(=O)N[C@@H](CC(=O)O)C(=O)N[C@@H](CCCCN)C(=O)N[C@@H](CCC(N)=O)C(=O)N[C@@H](C)C(=O)N[C@@H](CCC(N)=O)C(=O)N[C@@H](C)C(=O)N[C@@H](CCC(=O)O)C(=O)N[C@@H](Cc1ccccc1)C(=O)N[C@H](C(=O)N[C@@H](CCCCN)C(=O)N[C@@H](Cc1c[nH]c2ccccc12)C(=O)N[C@@H](CC(C)C)C(=O)N[C@@H](CC(C)C)C(=O)N[C@@H](CCCCNC(=O)COCCOCCNC(=O)COCCOCCNC(=O)COCCOCCNC(=O)CC[C@H](NC(=O)CCCCCCCCCCCCCCCCCCCCC(=O)O)C(=O)O)C(=O)NCC(=O)NCC(=O)N1CCC[C@H]1C(=O)N[C@@H](CO)C(=O)N[C@@H](CO)C(=O)NCC(=O)N[C@@H](C)C(=O)N1CCC[C@H]1C(=O)N1CCC[C@H]1C(=O)N1CCC[C@H]1C(=O)N[C@@H](CO)C(=O)N[C@@H](CCCCN)C(N)=O)C(C)C (some centres unmarked) [P020]
- MRT inf [1]: 37.1 ± 0.636 h
- MRT last [1]: 29.5 ± 4.68 h
- MRT inf [2]: 103 ± 13.1 h
- MRT last [2]: 97.5 ± 9.67 h
- MRT inf ([3]; iv): 21.8 h
- MRT last ([3]; iv): 16.8 h
- MRT inf ([3]; sc): 29.4 h
- MRT last ([3]; sc): 21.8 h
